The structures appear in SMILES notation.

T1 sequence (Q2M2I8 whole entry): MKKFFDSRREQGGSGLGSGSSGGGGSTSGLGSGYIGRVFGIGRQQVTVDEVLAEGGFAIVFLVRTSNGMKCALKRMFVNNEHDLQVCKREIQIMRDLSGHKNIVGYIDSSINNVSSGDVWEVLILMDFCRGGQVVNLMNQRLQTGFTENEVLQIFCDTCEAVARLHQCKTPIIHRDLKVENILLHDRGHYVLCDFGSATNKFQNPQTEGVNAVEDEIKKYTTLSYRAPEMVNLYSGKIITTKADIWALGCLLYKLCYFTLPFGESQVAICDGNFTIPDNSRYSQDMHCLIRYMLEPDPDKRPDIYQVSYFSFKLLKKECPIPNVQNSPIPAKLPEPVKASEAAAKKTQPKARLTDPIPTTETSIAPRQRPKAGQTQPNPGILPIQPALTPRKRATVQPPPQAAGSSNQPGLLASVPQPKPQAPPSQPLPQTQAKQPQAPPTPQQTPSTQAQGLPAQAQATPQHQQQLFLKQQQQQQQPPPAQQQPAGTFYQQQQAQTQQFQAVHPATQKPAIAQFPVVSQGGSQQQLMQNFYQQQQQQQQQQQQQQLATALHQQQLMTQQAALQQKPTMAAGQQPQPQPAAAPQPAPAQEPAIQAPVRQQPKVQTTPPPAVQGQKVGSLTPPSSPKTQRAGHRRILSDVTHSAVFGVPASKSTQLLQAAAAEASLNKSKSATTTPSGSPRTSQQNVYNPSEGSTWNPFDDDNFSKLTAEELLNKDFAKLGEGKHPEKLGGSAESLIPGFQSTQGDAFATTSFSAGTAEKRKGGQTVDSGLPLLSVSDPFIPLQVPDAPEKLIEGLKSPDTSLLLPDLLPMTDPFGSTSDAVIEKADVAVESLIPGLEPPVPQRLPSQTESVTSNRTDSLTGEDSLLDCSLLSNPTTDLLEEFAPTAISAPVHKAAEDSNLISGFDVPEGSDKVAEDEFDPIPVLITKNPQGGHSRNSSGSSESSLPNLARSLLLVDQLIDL

The first experiment concerns the target T1, GST-Xa-hAAK1 (Homo sapiens, UniProt Q2M2I8).
T1 construct: made in house
In words: AAK1 Kinase Assay (Caliper LabChip, fluoresceinated peptide substrate). Type of experiment: biochemical. The note with it: ATP 22 μM; listed as IC50 ranges. As to the method:
The assays were performed in U-bottom 384-well plates. The final assay volume was 30 μl prepared from 15 μl additions of enzyme and substrates (fluoresceinated peptide (5-FAM)-Aha-[…]-NH2 and ATP) and test compounds in assay buffer (10 mM Tris-HCL pH 7.4, 10 mM MgCl2, 0.01% Tween-20 and 1.0 mM DTT). The reactions were initiated by the combination of bacterially expressed, GST-Xa-hAAK1 with substrates and test compounds. The reactions were incubated at room temperature for 3 hours and terminated by adding 60 μl of 35 mM EDTA buffer to each sample. The reactions were analyzed on the Caliper LabChip 3000 (Caliper, Hopkinton, Mass.) by electrophoretic separation of the fluorescent substrate and phosphorylated product. […] The final concentration of reagents in the assays are ATP, 22 μM; (5-FAM)-Aha-[…]-NH2, 1.5 μM; GST-Xa-hAAK1, 3.5 nM; and DMSO, 1.6%. Dose response curves were generated to determine the concentration required inhibiting 50% of kinase activity (IC50). Compounds were dissolved at 10 mM in dimethylsulfoxide (DMSO) and evaluated at eleven concentrations. IC50 values were derived by non-linear regression analysis.
For the compound `CC(C)C[C@H](N)COc1ccc2c(c1)OC(C)c1cnccc1-2` (mixture of isomers) [Example 6, (2S)-4-methyl-1-(5-methyl-5H-chromeno[3,4-c]pyridin-8-yloxy)pentan-2-amine], the concentration for half-maximal inhibition (IC50) (in general, the concentration needed to halve the response being measured) was in the range of 0.001 to 0.01 µM.

`CC(C)C[C@@H](N)COc1ccc2c(c1)OC(C)c1cnccc1-2` (single isomer, unassigned) [Example 7b]: the half-inhibitory concentration (IC50) was 0.01 to 0.1 µM.

In the case of `CC(C)C[C@H](N)COc1ccc2c(c1)OC(C1CC1)c1cnccc1-2` (single isomer, unassigned) [Example 8a], the IC50 fell in the range of 0.1 to 1 µM.

Take `CCC1Oc2cc(OC[C@@H](N)CC(C)C)ccc2-c2ccncc21` (single isomer, unassigned) [Example 10b]: the IC50 lay in the range of 0.01 to 0.1 µM.

As for `CC(C)C[C@H](N)COc1cc2c(cc1I)-c1ccncc1C(C)O2` (single isomer, unassigned) [Example 31a], the IC50 was in the range of 0.001 to 0.01 µM.

As for `CC(C)C[C@H](N)COc1cc2c(cc1I)-c1ccncc1C(C)O2` (single isomer, unassigned) [Example 31b], the IC50 fell in the range of 0.001 to 0.01 µM.

For `N[C@@H](COc1ccc2c(c1)OCc1cnccc1-2)Cc1ccccc1` [Example 2, (R)-1-(5H-chromeno[3,4-c]pyridin-8-yloxy)-3-phenylpropan-2-amine], the IC50 was 0.1 to 1 µM.

Turning to `CC[C@@H](N)COc1ccc2c(c1)OCc1cnccc1-2` [Example 3, (R)-1-(5H-chromeno[3,4-c]pyridin-8-yloxy)butan-2-amine], the IC50 lay within 0.1 to 1 µM.

On to `CC[C@H](N)COc1ccc2c(c1)OCc1cnccc1-2` [Example 4, (S)-1-(5H-chromeno[3,4-c]pyridin-8-yloxy)butan-2-amine], for which the concentration for half-maximal inhibition (IC50) was in the range of 0.01 to 0.1 µM.

As to `CC(C)C[C@@H](N)COc1ccc2c(c1)OC(C1CC1)c1cnccc1-2` (stereo partly shown) [Example 9], the IC50 lay within 0.1 to 1 µM.

`CC(C)C[C@H](N)COc1ccc2c(c1)OC1(COC1)c1cnccc1-2` [Example 19, (S)-4-methyl-1-(spiro[chromeno[3,4-c]pyridine-5,3′-oxetan]-8-yloxy)pentan-2-amine]: the IC50 lay in the range of 0.1 to 1 µM.

Regarding `CC(C)C[C@H](N)COc1ccc2c(c1)OC(CO)(CCl)c1cnccc1-2` (stereo partly drawn) [Example 20, (8-(((S)-2-amino-4-methylpentyl)oxy)-5-(chloromethyl)-5H-chromeno[3,4-c]pyridin-5-yl)methanol], the IC50 is 0.01 to 0.1 µM.

Take `CC(C)C[C@H](N)COc1cc2c(cc1C#N)-c1ccncc1CO2` [Example 23, (S)-8-(2-amino-4-methylpentyloxy)-5H-chromeno[3,4-c]pyridine-9-carbonitrile]: the IC50 was 0.001 to 0.01 µM.

On to `CC(C)C[C@H](N)COc1ccc2c(c1)OC(C)c1cnc(N)cc1-2` (stereo partly drawn) [Example 29, 8-(((S)-2-amino-4-methylpentyl)oxy)-5-methyl-5H-chromeno[3,4-c]pyridin-2-amine], for which the IC50 was 0.01 to 0.1 µM.

Regarding `CC(=O)Nc1cc2c(cn1)C(C)Oc1cc(OC[C@@H](N)CC(C)C)ccc1-2` (stereo partly drawn) [Example 30, N-(8-(((S)-2-amino-4-methylpentyl)oxy)-5-methyl-5H-chromeno[3,4-c]pyridin-2-yl)acetamide], the IC50 was in the range of 0.01 to 0.1 µM.

Regarding `Cc1nccc2c1c(=O)oc1cc(OC[C@@H](N)CC(C)C)ccc12` [Example 34, (S)-8-((2-amino-4-methylpentyl)oxy)-4-methyl-5H-chromeno[3,4-c]pyridin-5-one], the IC50 fell in the range of 0.01 to 0.1 µM.

Consider `Cc1cc2c(cn1)COc1cc(OC[C@@H](N)CC(C)C)ccc1-2` [Example 39, (S)-4-methyl-1-((2-methyl-5H-chromeno[3,4-c]pyridin-8-yl)oxy)pentan-2-amine], for which the IC50 fell in the range of 0.1 to 1 µM.

Regarding `CC(=O)Nc1cc2c(cn1)COc1cc(OC[C@H](N)CC(C)C)ccc1-2` [Example 40, (R)-N-(8-(2-amino-4-methylpentyloxy)-5H-chromeno[3,4-c]pyridin-2-yl)acetamide], the IC50 lay within 0.001 to 0.01 µM.

The experiment is the same for the next values; noted with them: ATP 22 μM; numeric values.
For the compound `CC(C)C[C@@H](N)COc1ccc2c(c1)OCc1cnccc1-2` [Example 1, (R)-1-(5H-chromeno[3,4-c]pyridin-8-yloxy)-4-methylpentan-2-amine], the IC50 worked out at 0.02 µM.

For the origin of these results see US8703953B2, “Aryl ether-base kinase inhibitors” (Bristol-Myers Squibb Company, priority 2012, dated 2014).
